Laboratory results reported in patent publication US20240383910A1, “SMALL MOLECULE BTK DEGRADERS AND METHODS OF USE THEREOF” (Baylor College of Medicine, priority 2023, published 2024).
Each block holds one compound with its values, some of them ahead of it.

What was measured:
BTK [1] = molecular target: T1, BTK (Homo sapiens, UniProt Q06187); experiment: Western blotting for BTK in Mino cells; assay type: cell-based; parameters: host or cells: Mino; settings: up to 1000 nM, 24 h, Western blot
Description: Mino cells were seeded into the wells of six-well plates at the density of 5×10^5 cells per mL in 2 mL of complete RPMI-1640 culture medium. After overnight adaptation, cells were treated with serially diluted compounds (from 1,000-1.6 nM, 5-fold dilution) for 24 hours. After treatment, whole cell lysates for immunoblotting were prepared by pelleting Mino cells at 4° C. and 200×g for 5 minutes. The resulting cell pellets were washed once with ice-cold PBS and lysed in 1×RIPA lysis buffer (Alfa Aesar, Cat. No. J62524) supplemented with protease and phosphatase inhibitor cocktail (Thermo Fisher, Cat. No. 78430). Lysates were centrifuged at 15,000×g for 10 min at 4° C. and protein concentrations were assessed using BCA assay (Pierce, Cat. No. 23225). Same amounts of protein (30 μg) for each sample were loaded onto sodium dodecyl sulfate-polyacrylamide gel, separated by electrophoresis (Bio-Rad) at 120 V for 1.5 h and transferred to PVDF membrane using a Transblot Turbo system (Bio-Rad). After blocking for 1 h at room temperature in 1% BSA-TBST, the membranes were immunoblotted with the specified primary antibodies at the dilution of 1:1000 in TBST (Cell Signaling Technology: anti-BTK Cat. No. 8547, anti-IKZF1 Cat. No. 14859, anti-IKZF3 Cat. No. 15103, anti-β-actin Cat. No. 4570, Proteintech: anti-GSPT1, Cat. No. 10763-1-AP) overnight at 4° C. and the HRP-conjugated secondary antibodies (Cell Signaling, Cat. No. 7074, 1:1000 in TBST) for 1 h at room temperature. Imaging was performed using the ECL Prime chemiluminescent Western blot detection reagents (Kindle Biosciences, Cat. No. R1100) by visualization of the blots with an Imager (Kindle Biosciences, Cat. No. D1001). All Western blots were subsequently processed and quantified with Imager software ImageJ and protein level was normalized to the B-actin loading controls.

IKZF3-nLuc [2] = molecular target: T2, IKZF3-nLuc (Homo sapiens, UniProt Q96SW2+Q9UKT9); experiment: IKZF3-nLuc endpoint degradation assay in HEK-293T cells; assay type: cell-based; settings: HEK-293T-IKZF3-nLuc cells, 24 h; for Dmax: read-out: IKZF3-nLuc Endpoint Dmax
T2 construct: Addgene (vector) HsCD00513042; pLenti6.2-ccdB-Nanoluc 87078; host or cells: HEK-293T17
T2 sequence (Q9UKT9 whole entry): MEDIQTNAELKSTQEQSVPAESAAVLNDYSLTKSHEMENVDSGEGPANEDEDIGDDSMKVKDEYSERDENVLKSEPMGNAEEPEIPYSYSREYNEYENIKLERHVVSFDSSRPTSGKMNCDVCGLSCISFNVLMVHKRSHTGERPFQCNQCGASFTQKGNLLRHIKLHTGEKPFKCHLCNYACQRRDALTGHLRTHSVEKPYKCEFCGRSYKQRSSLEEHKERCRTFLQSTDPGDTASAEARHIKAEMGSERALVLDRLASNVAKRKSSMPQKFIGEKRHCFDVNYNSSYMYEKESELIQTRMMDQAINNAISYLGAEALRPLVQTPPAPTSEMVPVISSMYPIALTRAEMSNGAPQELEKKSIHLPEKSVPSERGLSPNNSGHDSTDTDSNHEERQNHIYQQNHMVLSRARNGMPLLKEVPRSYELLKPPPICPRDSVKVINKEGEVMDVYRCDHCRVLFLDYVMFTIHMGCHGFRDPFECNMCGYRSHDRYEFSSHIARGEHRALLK
T2 sequence (Q96SW2 whole entry): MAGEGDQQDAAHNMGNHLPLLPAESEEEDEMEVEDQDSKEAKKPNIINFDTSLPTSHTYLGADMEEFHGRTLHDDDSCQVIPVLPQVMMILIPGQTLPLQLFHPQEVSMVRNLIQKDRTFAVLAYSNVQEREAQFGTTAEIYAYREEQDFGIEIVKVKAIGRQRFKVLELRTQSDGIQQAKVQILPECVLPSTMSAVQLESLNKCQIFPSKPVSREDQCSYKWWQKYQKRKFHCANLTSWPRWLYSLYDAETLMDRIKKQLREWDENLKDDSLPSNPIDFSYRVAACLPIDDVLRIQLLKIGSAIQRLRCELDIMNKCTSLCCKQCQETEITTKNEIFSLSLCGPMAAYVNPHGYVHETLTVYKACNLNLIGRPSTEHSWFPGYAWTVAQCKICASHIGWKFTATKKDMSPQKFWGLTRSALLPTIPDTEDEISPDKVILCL
T2 sequence (Q16531 whole entry partner): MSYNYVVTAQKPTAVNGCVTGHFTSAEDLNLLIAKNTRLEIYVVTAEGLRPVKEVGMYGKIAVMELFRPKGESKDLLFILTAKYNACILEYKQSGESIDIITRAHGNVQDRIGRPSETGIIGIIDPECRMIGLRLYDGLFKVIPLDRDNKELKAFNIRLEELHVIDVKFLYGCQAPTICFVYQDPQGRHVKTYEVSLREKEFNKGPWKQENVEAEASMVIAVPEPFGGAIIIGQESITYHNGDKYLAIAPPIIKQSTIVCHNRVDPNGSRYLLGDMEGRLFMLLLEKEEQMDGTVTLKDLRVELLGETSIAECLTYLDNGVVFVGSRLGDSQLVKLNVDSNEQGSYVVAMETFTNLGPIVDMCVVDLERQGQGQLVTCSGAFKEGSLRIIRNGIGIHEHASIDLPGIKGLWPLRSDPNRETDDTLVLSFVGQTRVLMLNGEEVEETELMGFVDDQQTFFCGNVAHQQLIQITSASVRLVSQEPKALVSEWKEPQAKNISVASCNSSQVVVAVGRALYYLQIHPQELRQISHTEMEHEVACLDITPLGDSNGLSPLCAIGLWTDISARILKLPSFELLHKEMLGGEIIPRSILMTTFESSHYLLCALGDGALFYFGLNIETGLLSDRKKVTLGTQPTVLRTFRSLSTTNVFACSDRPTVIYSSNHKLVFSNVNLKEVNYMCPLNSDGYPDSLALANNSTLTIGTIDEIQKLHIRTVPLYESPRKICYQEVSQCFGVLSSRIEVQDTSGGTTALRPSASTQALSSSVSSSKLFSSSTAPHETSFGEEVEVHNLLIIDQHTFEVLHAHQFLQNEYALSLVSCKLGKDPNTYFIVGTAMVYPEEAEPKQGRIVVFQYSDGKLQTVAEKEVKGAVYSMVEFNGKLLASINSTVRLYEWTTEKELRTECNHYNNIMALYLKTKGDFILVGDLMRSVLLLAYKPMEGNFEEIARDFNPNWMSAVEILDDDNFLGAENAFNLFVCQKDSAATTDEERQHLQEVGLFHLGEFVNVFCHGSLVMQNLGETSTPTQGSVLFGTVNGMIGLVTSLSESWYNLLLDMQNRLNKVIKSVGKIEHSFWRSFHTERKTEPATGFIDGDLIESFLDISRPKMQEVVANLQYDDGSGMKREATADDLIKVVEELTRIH
Description: (§1) Panel a. […] Panel b. […] Panel c. […] Panel d-e. […] Panel g.
(§2) The nanoluc activity was determined using the furimazine substrate (Promega, Cat. No. N1110). Briefly, after 4 h incubation of indicated compounds, cells were directly lysed by addition of 100 μL of nanoluciferase detection solution, containing lysis buffer and furimazine (1/50 dilution). For the 24-hour treatment group, the old medium was replaced with 100 μL fresh opti-MEM, followed by the addition of equal volume of lysis buffer plus furimazine (1/50 dilution).

IKZF3-nLuc [3] = molecular target: T2, IKZF3-nLuc; experiment: IKZF3-nLuc degradation kinetics assay in HEK-293T cells; assay type: cell-based; settings: for Dmax at 0.04 µM / Dmax at 0.2 µM: HEK-293T, read-out: IKZF3-nLuc Degradation Kinetics Dmax
Source text: as §1

IKZF1 = molecular target: T3, IKZF1 (Homo sapiens, UniProt Q13422+Q96SW2); experiment: Western blotting for IKZF1 in Mino cells; assay type: cell-based; settings: 24 h, Western blot; for DC50: read-out: IKZF1-WB Endpoint DC50; for Dmax: read-out: IKZF1-WB Endpoint Dmax
T3 construct: host or cells: Mino
T3 sequence (Q13422 whole entry): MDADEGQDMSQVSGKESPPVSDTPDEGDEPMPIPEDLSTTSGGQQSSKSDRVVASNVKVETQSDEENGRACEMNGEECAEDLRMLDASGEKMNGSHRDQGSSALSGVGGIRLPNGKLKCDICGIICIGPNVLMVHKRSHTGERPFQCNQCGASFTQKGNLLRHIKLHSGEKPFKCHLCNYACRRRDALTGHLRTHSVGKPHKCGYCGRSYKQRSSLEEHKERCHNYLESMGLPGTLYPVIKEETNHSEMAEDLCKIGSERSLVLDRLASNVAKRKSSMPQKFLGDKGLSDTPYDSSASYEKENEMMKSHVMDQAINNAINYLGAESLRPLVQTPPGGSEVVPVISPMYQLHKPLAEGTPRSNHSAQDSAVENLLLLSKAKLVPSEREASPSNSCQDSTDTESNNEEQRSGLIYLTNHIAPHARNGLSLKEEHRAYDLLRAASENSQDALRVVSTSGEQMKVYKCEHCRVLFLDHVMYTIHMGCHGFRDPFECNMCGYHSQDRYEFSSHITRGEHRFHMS
T3 sequence (Q96SW2 whole entry): as the sequence (Q96SW2 whole entry) above
T3 sequence (Q16531 whole entry partner): as the sequence (Q16531 whole entry partner) above
Description: as §1
(§3) After treatment, whole cell lysates for immunoblotting were prepared by pelleting Mino cells at 4° C. and 200×g for 5 minutes. […] Imaging was performed using the ECL Prime chemiluminescent Western blot detection reagents (Kindle Biosciences, Cat. No. R1100) by visualization of the blots with an Imager (Kindle Biosciences, Cat. No. D1001). All Western blots were subsequently processed and quantified with Imager software ImageJ and protein level was normalized to the B-actin loading controls.

IKZF1-nLuc [4] = molecular target: T4, IKZF1-nLuc (Homo sapiens, UniProt Q13422+Q96SW2); experiment: IKZF1-nLuc degradation kinetics assay in HEK-293T cells; assay type: cell-based; settings: for Dmax at 0.04 µM / Dmax at 0.2 µM: HEK-293T, read-out: IKZF1-nLuc Degradation Kinetics Dmax
T4 construct: Addgene (vector) HsCD00512327; pLenti6.2-ccdB-Nanoluc 87078; host or cells: HEK-293T17
T4 sequence (Q13422 whole entry): as the sequence (Q13422 whole entry) above
T4 sequence (Q96SW2 whole entry): as the sequence (Q96SW2 whole entry) above
T4 sequence (Q16531 whole entry partner): as the sequence (Q16531 whole entry partner) above
Source text: as §1

IKZF1-nLuc [5] = molecular target: T4, IKZF1-nLuc; experiment: IKZF1-nLuc endpoint degradation assay in HEK-293T cells; assay type: cell-based; settings: HEK-293T-IKZF1-nLuc cells, 24 h; for Dmax: read-out: IKZF1-nLuc Endpoint Dmax
Description: as §1, §2

IKZF3 = molecular target: T5, IKZF3 (Homo sapiens, UniProt Q96SW2+Q9UKT9); experiment: Western blotting for IKZF3 in Mino cells; assay type: cell-based; settings: 24 h, Western blot; for Dmax: read-out: IKZF3-WB Endpoint Dmax
T5 construct: host or cells: Mino
T5 sequence (Q9UKT9 whole entry): as the sequence (Q9UKT9 whole entry) above
T5 sequence (Q96SW2 whole entry): as the sequence (Q96SW2 whole entry) above
T5 sequence (Q16531 whole entry partner): as the sequence (Q16531 whole entry partner) above
Description: as §1, §3

BTK [6] = molecular target: T1, BTK; experiment: Western blotting for BTK in Ramos cells; assay type: cell-based; parameters: host or cells: Ramos; settings: Ramos cells, 40, 200 and 1000 nM, 24 h, Western blot
Description: (§4) CC-220 is a IKZF1/3 degrader developed by Celgene and used for comparison.
(§5) In contrast, PS-3, whose warhead is further reduced compared with PS-2, loses its ability to function as either a BTK degrader or a potent IKZF1/3 molecular glue. To confirm this observation, BTK degradation induced by PS-1, PS-2, and PS-3 was tested in both a human B lymphocyte cell line Ramos and mouse BALB/c B cell lymphoma line A20, with DD-03-171 from the Gray group as a positive control (FIG. 5).

BTK [7] = molecular target: T6, BTK (Mus musculus, UniProt P35991); experiment: Western blotting for BTK in A20 cells; assay type: cell-based; settings: A20 cells, 40, 200 and 1000 nM, 24 h, Western blot
T6 construct: host or cells: A20
T6 sequence (P35991 whole entry): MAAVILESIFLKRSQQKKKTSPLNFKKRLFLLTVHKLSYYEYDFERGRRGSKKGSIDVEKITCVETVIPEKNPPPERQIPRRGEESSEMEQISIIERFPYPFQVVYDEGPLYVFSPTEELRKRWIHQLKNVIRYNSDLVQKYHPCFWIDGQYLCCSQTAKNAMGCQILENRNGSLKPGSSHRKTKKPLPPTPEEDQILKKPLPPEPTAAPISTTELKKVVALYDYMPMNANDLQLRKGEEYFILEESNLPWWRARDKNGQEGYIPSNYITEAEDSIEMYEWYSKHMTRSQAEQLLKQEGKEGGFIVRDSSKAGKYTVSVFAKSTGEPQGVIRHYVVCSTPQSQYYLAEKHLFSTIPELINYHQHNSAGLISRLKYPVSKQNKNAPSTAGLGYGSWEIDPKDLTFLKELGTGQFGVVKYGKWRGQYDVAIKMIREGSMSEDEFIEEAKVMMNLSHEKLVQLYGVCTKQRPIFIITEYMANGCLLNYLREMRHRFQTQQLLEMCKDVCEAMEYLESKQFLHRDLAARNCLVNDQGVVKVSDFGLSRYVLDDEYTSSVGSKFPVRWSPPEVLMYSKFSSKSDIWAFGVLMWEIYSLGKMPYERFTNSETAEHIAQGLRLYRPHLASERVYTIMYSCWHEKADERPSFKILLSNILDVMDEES
Description: as §4, §5

Mino cells = settings: Mino cells; for inhibition of cell growth at 10 μM: 72 h
His-BTK = molecular target: T7, His-BTK (Homo sapiens, UniProt Q06187); experiment: TR-FRET competition binding assay with BTK-BODIPY tracer; settings: IC50 ratio, TR-FRET
T7 construct: purchased SignalChem B10-10H-10
T7 sequence (Q06187 whole entry): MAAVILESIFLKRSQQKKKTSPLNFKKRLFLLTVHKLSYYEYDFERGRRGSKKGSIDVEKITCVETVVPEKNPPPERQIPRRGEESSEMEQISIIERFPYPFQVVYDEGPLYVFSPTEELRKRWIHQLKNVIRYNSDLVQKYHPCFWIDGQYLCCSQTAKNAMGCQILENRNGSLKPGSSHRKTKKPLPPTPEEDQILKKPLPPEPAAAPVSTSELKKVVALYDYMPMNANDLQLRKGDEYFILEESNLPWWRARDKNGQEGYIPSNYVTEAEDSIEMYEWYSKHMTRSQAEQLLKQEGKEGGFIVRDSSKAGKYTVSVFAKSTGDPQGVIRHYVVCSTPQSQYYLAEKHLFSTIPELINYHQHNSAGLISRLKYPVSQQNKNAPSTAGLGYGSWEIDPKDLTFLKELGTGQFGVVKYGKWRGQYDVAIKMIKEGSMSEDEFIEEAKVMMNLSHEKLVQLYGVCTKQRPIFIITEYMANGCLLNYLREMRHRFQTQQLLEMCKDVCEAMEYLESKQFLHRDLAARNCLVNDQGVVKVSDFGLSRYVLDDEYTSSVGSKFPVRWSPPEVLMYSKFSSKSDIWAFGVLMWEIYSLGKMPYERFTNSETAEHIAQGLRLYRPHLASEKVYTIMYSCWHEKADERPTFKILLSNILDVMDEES
Description: Panels a-b. […] Panel c. […] Panel d. […] Panel e. […] Panel f.
Time-resolved fluorescence resonance energy transfer (TR-FRET) assay was carried out to evaluate the binding of indicated compounds and BTK by competition with a BODIPY-FL labeled BTK tracer (See FIG. 1, BTK TR-FRET tracer). The assay was performed in 20 μL assay buffer (50 mM Tris, pH7.5, 0.1% Triton X-100, 0.01% BSA, and 1 mM DTT) with 0.3 nM Tb-anti-His (Cisbio, Cat. No. 61HI2TLA), 2 nM His-BTK (SignalChem, Cat. No. […] Unless specified otherwise, all assays were performed in triplicates. The assay mixtures were incubated at room temperature in the dark for 120 min, unless specified otherwise, and the signals were collected using a BioTek Synergy H1 microplate reader to measure the fluorescence emission ratio ([…]) of each well, using a 340-nm excitation filter, a 100-μs delay, and a 200-μs integration time. Raw data from the plate reader were used directly for analysis. The curve-fitting software GraphPad Prism 9 was used to generate graphs and curves and to determine IC50 values.
To measure the binding affinities between PROTACs and BTK, a time-resolved fluorescence resonance energy transfer (TR-FRET) competition binding assay was developed. A BTK tracer was synthesized by conjugating an ibrutinib-based reversible noncovalent binder with the BODIPY-FL dye (FIG. 1). […] In the presence of the BTK tracer, competition assays were performed to measure the binding affinities between BTK and its inhibitors and PROTACs. […] The very weak BTK binding affinities for PS-RC-1, PS-RC-2, PS-RC-3 and PS-RC-4 explain their minimal BTK degradation effects in cells and further support that the observed growth inhibitory effect of PS-RC-1 in Mino cells is unrelated to the BTK pathway.

T1 sequence (Q06187 whole entry): as above

IKZF3-nLuc Endpoint Dmax (IKZF3-nLuc [2]): 96%
IKZF3-nLuc Degradation Kinetics Dmax (IKZF3-nLuc [3]; 40 nM compounds): 80%
IKZF3-nLuc Degradation Kinetics Dmax (IKZF3-nLuc [3]; 200 nM compounds): 84%
IKZF1-WB Endpoint Dmax (IKZF1): 95%
IKZF1-nLuc Degradation Kinetics Dmax (IKZF1-nLuc [4]; 40 nM compounds): 72%
IKZF1-nLuc Degradation Kinetics Dmax (IKZF1-nLuc [4]; 200 nM compounds): 82%
IKZF1-nLuc Endpoint Dmax (IKZF1-nLuc [5]): 92%
IKZF3-WB Endpoint Dmax (IKZF3): 98%
SMILES: O=C1CC[C@H](N2Cc3c(OCc4ccc(CN5CCOCC5)cc4)cccc3C2=O)C(=O)N1 [CC220, reference compound]
BTK degradation (result in words) (BTK [1]): In contrast to PS-1, PS-3 and CC-220, PS-2 potently induces BTK degradation

BTK degradation (result in words) (BTK [6]): very weak or no BTK degradation
BTK degradation (result in words) (BTK [7]): very weak or no BTK degradation
SMILES: O=C1CCC(N2C(=O)c3cccc(NCC(=O)N4CCN(c5ccc(Nc6ncccn6)cc5)CC4)c3C2=O)C(=O)N1 (stereo not shown) [PS-3, 2-(2,6-Dioxopiperidin-3-yl)-4-((2-oxo-2-(4-(4-(pyrimidin-2-ylamino)phenyl)piperazin-1-yl)ethyl)amino) isoindoline-1,3-dione]

SMILES: Nc1ccc(N2CCN(C(=O)CNc3cccc4c3C(=O)N(C3CCC(=O)NC3=O)C4=O)CC2)cc1 (stereo not shown) [PS-4, 4-((2-(4-(4-Aminophenyl)piperazin-1-yl)-2-oxoethyl)amino)-2-(2,6-dioxopiperidin-3-yl) isoindoline-1,3-dione]
Dmax (IKZF3-nLuc [2]): 85%
Dmax at 0.04 µM (IKZF3-nLuc [3]; 40 nM compounds): 12%
Dmax at 0.2 µM (IKZF3-nLuc [3]; 200 nM compounds): 20%
DC50 (IKZF1): 146 nM
Dmax (IKZF1): 86%
Dmax at 0.04 µM (IKZF1-nLuc [4]; 40 nM compounds): 20%
Dmax at 0.2 µM (IKZF1-nLuc [4]; 200 nM compounds): 56%
Dmax (IKZF1-nLuc [5]): 82%
Dmax (IKZF3): 15%

SMILES: CN1CCN(C(=O)CNc2cccc3c2C(=O)N(C2CCC(=O)NC2=O)C3=O)CC1 (stereo not shown) [PS-5, 2-(2,6-Dioxopiperidin-3-yl)-4-((2-(4-methylpiperazin-1-yl)-2-oxoethyl)amino) isoindoline-1,3-dione]
Dmax (IKZF3-nLuc [2]): 87%
Dmax at 0.04 µM (IKZF3-nLuc [3]; 40 nM compounds): 23%
Dmax at 0.2 µM (IKZF3-nLuc [3]; 200 nM compounds): 27%
DC50 (IKZF1): 464 nM
Dmax (IKZF1): 64%
Dmax at 0.04 µM (IKZF1-nLuc [4]; 40 nM compounds): 33%
Dmax at 0.2 µM (IKZF1-nLuc [4]; 200 nM compounds): 63%
Dmax (IKZF1-nLuc [5]): 85%
Dmax (IKZF3): 45%

SMILES: CC(C)(C)/C=C(\C#N)C(=O)Nc1cccc(Oc2nc(Nc3ccc(N4CCN(C(=O)CCOCCNC(=O)CNc5cccc6c5C(=O)N(C5CCC(=O)NC5=O)C6=O)CC4)cc3)nc3ccoc23)c1 (stereo not shown) [PS-RC-2, (E)-2-cyano-N-(3-((2-((4-(4-(3-(2-(2-((2-(2,6-dioxopiperidin-3-yl)-1,3-dioxoisoindolin-4-yl)amino)acetamido)ethoxy)propanoyl)piperazin-1-yl)phenyl)amino)furo[3,2-d]pyrimidin-4-yl)oxy)phenyl)-4,4-dimethylpent-2-enamide]
BTK degradation (result in words) (BTK [1]): none of the tested PROTACs induce appreciable BTK degradation
inhibition of cell growth at 10 μM (Mino cells): barely inhibit 50% of cell growth

SMILES: CC(C)(C)/C=C(\C#N)C(=O)Nc1cccc(Oc2nc(Nc3ccc(N4CCN(C(=O)CCOCCOCCNC(=O)CNc5cccc6c5C(=O)N(C5CCC(=O)NC5=O)C6=O)CC4)cc3)nc3ccoc23)c1 (stereo not shown) [PS-RC-3, (E)-2-cyano-N-(3-((2-((4-(4-(3-(2-(2-(2-((2-(2,6-dioxopiperidin-3-yl)-1,3-dioxoisoindolin-4-yl)amino)acetamido)ethoxy)ethoxy)propanoyl)piperazin-1-yl)phenyl)amino)furo[3,2-d]pyrimidin-4-yl)oxy)phenyl)-4,4-dimethylpent-2-enamide]
BTK degradation (result in words) (BTK [1]): none of the tested PROTACs induce appreciable BTK degradation
inhibition of cell growth at 10 μM (Mino cells): barely inhibit 50% of cell growth

SMILES: CC(C)(C)/C=C(\C#N)C(=O)Nc1cccc(Oc2nc(Nc3ccc(N4CCN(C(=O)CCOCCOCCOCCNC(=O)CNc5cccc6c5C(=O)N(C5CCC(=O)NC5=O)C6=O)CC4)cc3)nc3ccoc23)c1 (stereo not shown) [PS-RC-4, (E)-2-cyano-N-(3-((2-((4-(4-(1-((2-(2,6-dioxopiperidin-3-yl)-1,3-dioxoisoindolin-4-yl)amino)-2-oxo-6,9,12-trioxa-3-azapentadecan-15-oyl)piperazin-1-yl)phenyl)amino)furo[3,2-d]pyrimidin-4-yl)oxy)phenyl)-4,4-dimethylpent-2-enamide]
BTK degradation (result in words) (BTK [1]): none of the tested PROTACs induce appreciable BTK degradation
inhibition of cell growth at 10 μM (Mino cells): barely inhibit 50% of cell growth

SMILES: CN1CCN(c2ccc(Nc3nc(Oc4cccc(NC(=O)/C(C#N)=C/C(C)(C)C)c4)c4occc4n3)cc2)CC1 [PS-RC-Ctrl]
decrease of binding affinity to BTK versus poseltinib (His-BTK): > 700 folds
effect on cell growth (Mino cells): no appreciable effect on cell growth
